US20080124368A1, “Composition” (priority 2004, published 2008)

System: human immunodeficiency virus (HIV)
Assay: HIV viral assay (carried out by Imquest Bioscience)
Type: cell-based
Experimental: Antiviral compounds may be incorporated into polymers, such as hydrophilic polyurethanes or silicone, for certain applications where antiviral activities are needed.
The compound (0.5 gms) was protonated using dilute hydrochloric acid to a pH of 4 to a total volume of 30 ml. To 5 gms of this solution was added 5 gms of polyvinyl sulfonate (Aldrich, a 25 wt % aqueous solution). A white precipitate of the adduct immediately formed and remained colloidal without settling. This was used as such for an assay carried out by Imquest Bioscience, MD, and high dilutions were studied. […] These and other compounds could be incorporated into the polyurethane plastics of this invention for their slow delivery of antivirals; other viruses could be potentially also be deactivated.

SMILES: c1c[nH]c(-c2ncc[nH]2)n1 [bimidazole, biimidazole]
- antiviral efficacy (in words): potent antiviral
